{"source": "patent US6649797B2", "about": "“Compounds and methods of use to treat infectious diseases” (The Picower Institute for Medical Research, priority 1996, dated 2003)", "tested_on": "HIV-1 pre-integration complexes / karyopherin α", "experiment": "Binding of HIV-1 pre-integration complexes to GST-karyopherin α", "assay_type": "biochemical", "details": "for reduction of karyopherin α/HIV-1 binding: lysates of HIV-1RF infected H9 cells treated 2 hours, Phosphorimager", "method": "Cytoplasmic lysates of H9 cells infected with HIV-1RF (upper panel) or HIV-like pseudovirions (bottom panel) were treated for 2 hours with various concentrations of CNI-H0294, and were then mixed with GST-karyopherin α immobilized on glutathione Sepharose beads. HIV-1 DNA or RNA that co-precipitated with karyopherin α was quantified as in A and B.\nCytoplasmic lysates prepared from H9 cells infected with HIV-1RF were treated with 10 μM CNI-H3094 (lane 1) or with 1 μM CNI-H0294 and 10 μM (lane 5), 5 μM (lane 4), 1 μM (lane 3), or no CNI-H3094 (lane 2). The amount of pre-integration complexes available for interaction with karyopherin α was quantified as in FIG. 10.\nH9 cells were infected with equal amounts of wild-type HIV-1NLHX or with mutant HIV-1NLHX that lack Vpr (Vpr^−) or carry a mutation that inactivates the MA NLS (MA NLS^−). Infected cells were washed and incubated for 4 h. An aliquot of each sample was used to quantify the total HIV-1 DNA (FIG. 14A) and the rest was used to prepare cytoplasmic extracts. Extracts were incubated with 1 μM CNI-H0294 (FIG. 14B, lanes 2, 4, 6, 8) or were left untreated (lanes 1, 3, 5, 7). The amount of pre-integration complexes available for binding to karyopherin α was determined as in FIG. 10.\nH9 cells were infected with HIV-1 or HIV-like pseudovirions (Haffar, et al., 1990, J. Virol., 64:2653-2659) at a multiplicity adjusted according to p24 content (50 ng p24 per 10^6 cells) The MA NLS^− virus contains substitutions of isoleucine residues for lysines in positions 26 and 27 of MA in an NLHX backbone (Westervelt., et al., 1992, J. Virol. 66:2577-2582), thus inactivating the NLS. The Vpr^− virus has the initiating ATG of the vpr gene changed to GTG, thus abolishing expression of this gene. The ΔMA NLS pseudovirions have leucine substituting for lysine in position 28 of MA. This mutation abrogates nuclear translocation of HIV-1 gag RNA in growth-arrested H9 cells infected with pseudovirions. After a 1 hour absorption, excess viruses or pseudovirions were washed away, and cells were incubated for an additional 2-3 hour period at 37° C. prior to analysis.\nCytoplasmic extracts were prepared by lysing cells in cold extraction buffer (10 mM KCl, 10 mM Tris-HCl [pH 7.6], 0.5 mM MgCl2, 1 μg/ml each of leupeptin and aprotinin, and 1 MM phenylmethylsulfonyl fluoride [PMSF]) by 20-30 strokes of a Dounce homogenizer under the control of phase-contrast microscopy. After removal of nuclei, cytoplasmic extract was cleared by centrifugation at 15,000 g for 10 min.\nCytoplasmic extracts prepared from HIV-1-or pseudovirion-infected H9 cells were adjusted to 0.14 M NaCl, 0.1% Tween 20 and precleared with glutathione-Sepharose beads for 30 min. at room temperature. Karyopherin α was expressed as a fusion protein with glutathione S-transferase (GST) which can bind glutathione beads in solution. GST-karyopherin α immobilized on Sepharose beads was then added (about 50 μg of immobilized karyopherin α per extract from 108 infected cells) and the mixture was incubated at room temperature for another 30 min. Beads were then pelleted by centrifugation and washed 3 times with PBS supplemented with 0.1% Tween 20, 1 μg/ml each of leupeptin and aprotinin, and 1 mM PMSF. HIV-1 DNA was isolated from the beads by SDS-proteinase K treatment with subsequent phenol-chloroform extraction, while pseudovirion gag RNA was isolated by RNazol (Biotecx Laboratories Inc.)."}
{"smiles": "CC(=O)c1cc(Nc2cc(C)[n+](C)c(N)n2)cc(C(C)=O)c1", "note": "[CNI-0294, 2-Amino-4-(3,5-diacetylphenyl)amino-1,6-dimethylpyrimidinium chloride]", "values": [{"measurement": "reduction of karyopherin α/HIV-1 binding", "setting": "0.1 μM", "value": 8, "unit": "fold"}, {"measurement": "effect on binding of karyopherin α to complexes", "setting": "1 μM, MA NLS^− complexes", "value": "had no effect"}, {"measurement": "diminished binding of karyopherin α to complexes", "setting": "1 μM, Vpr^− complexes", "value": 95, "unit": "%"}, {"measurement": "reduction of karyopherin α/HIV-1 binding", "setting": "1 μM", "value": 25, "unit": "fold"}, {"measurement": "diminished binding of karyopherin α to complexes", "setting": "1 μM, wild-type (wt) HIV-1NLHX complexes", "value": 95, "unit": "%"}, {"measurement": "interaction of pre-integration complexes with karyopherin α", "setting": "10 μM (FIG. 13A)", "value": "blocked the interaction"}]}
